# Measurements as given in patent US11491155B2, “Salt of a pyrimido[6,1-A]isoquinolin-4-one compound” (VERONA PHARMA PLC, priority 2015, dated 2022).
# Key:
# [1] = Solubility of RPL554 salts in saline solutions, water and aqueous buffer solutions at 25° C. (HPLC); type: physicochemical; conditions: 24 hours; for Solubility as RPL554 (mg/ml) in Water: deionised water
# Protocol: The behaviour of salts of RPL554 were examined under the following conditions: • Phosphate buffered to pH 3.5 in saline, 0.9% w/w at 25° C. • Acetate buffered to pH 4.5 in saline, 0.9% w/w at 25° C. • Citro-Phosphate buffered to pH 4.5 in saline, 0.9% w/w at 25° C. • Phosphate buffered to pH 6.5 in saline, 0.9% w/w at 25° C. • Saline, 0.7, 0.9 and 1.1% w/w at 25° C. • Deionised water at 25° C.
# RPL554 salts and RPL554, ca 50 mg, were suspended in the various aqueous media, 1 ml, with agitation at the specified temperatures for 24 hours. The solids were isolated and dried in vacuo at 45° C. The retained filtrates were examined by HPLC.
# Additional RPL554 methane sulfonate salt, ca 50 mg, was charged to the water mixtures at 25° C. and 37.5° C. in order to afford a suspension. In all other cases, suspensions were obtained.
# The solubility of the RPL554 was determined by HPLC using a single point calibration and is expressed as RPL554 and not as the salt and are detailed in Table 6 and Table 7 for the various conditions utilised.
# [2] = Intrinsic dissolution of compressed tablet, pH 7.0, 37° C. (Sirius inForm); type: physicochemical; conditions: for mass dissolved: before precipitation; for Mass of salt (μg) dissolved after 2 hours, Average / Mass of salt (μg) dissolved after 2 hours, Test 1 / Mass of salt (μg) dissolved after 2 hours, Test 2: pH 7.0, 0.15 M NaCl, 37° C.
# Protocol: The dissolution assay (pH-dependent sample dissolution) was investigated using the Sirius inForm.
# Dissolution of a compressed tablet of the compound was monitored in a pH 7.0 aqueous dissolution experiment (0.15 M NaCl) at 37° C. using UV-absorption spectroscopy in 2 hour experiments. A tablet with a diameter of 3 mm, requiring approximate weights of 10 mg was compressed under a weight of 100 kg load force. Only one face of the tablet was exposed to the dissolution medium, which contained a 0.01 M acetate/phosphate buffer system to minimise perturbation of the experimental pH from dissolution of the drug.
# Stirring of the solution was continuous and at a constant rate of 100 rpm. The absorption data was converted to absolute sample weights using previously determined, pH-dependent, molar extinction coefficients. An appropriate wavelength range was chosen to ensure that spectroscopic data with an absorption value of <1.3 was analysed, avoiding erroneous dissolution results due to saturation of the UV light source.
# [3] = Primary particle size analysis by laser light diffraction (Mastersizer 2000); type: physicochemical; conditions: micronised, mean n=3
# Protocol: A Mastersizer 2000 fitted with a Scirocco 2000 dry powder dispersion unit (Malvern Instruments Ltd, UK) was used to analyse the primary particle size of the micronised RPL554 and salt variants. The salts (50 mg) were automatically sampled via a vibrating feed control at a feeder rate of 60% and dispersed in compressed air at a pressure of 3 bar.
# [4] = Solubility of RPL554 and salts in pMDI propellant systems; type: physicochemical
# Protocol: Quantitative assessment of the solubility of RPL554 and salt variants in the propellant systems of selected pMDI formulations (three replicates of each formulation) was performed. pMDIs were directly coupled to an adaptor fitted with a 0.20 μm filter unit connected, in series to a 21 G needle, which was inserted via a rubber septum, into a cooled multi-dose glass vial. A 19 G filter needle was inserted through the septum to aid evaporation of propellant from the vial. Prior to the filtration process the vial was cooled in a mixture of dry ice and acetone to ensure that the pressure within the vial was reduced in order to facilitate collection of the output from the pMDI. Ten consecutive actuations of the pMDI were fired through the filter and collected in the vial. Between actuations the canister was shaken for approximately 10 seconds. The pMDI unit was weighed before and after the filtering procedure. The filtrate was stored at room temperature and allowed to evaporate to dryness.
# Samples were recovered by carefully rinsing the inside of the vials with 1 mL of recovery solution before transfer to HPLC vials for analysis. The estimated % of RPL554 solubilised within the canister was calculated from the starting mass of RPL554 within the canisters, which in turn was calculated using the theoretical molecular weight values of the RPL554 free base and salt variants shown in Table 13. The theoretical molecular weight estimates of the salts were provided by Verona.
# [5] = RPL554 content and content uniformity of 1% w/w lactose powder blends; type: physicochemical; conditions: for Measured Blend Content (% Theoretical): 1% w/w RPL554 variant: lactose powder blend, expressed as RPL554 base; for **Adjusted RPL554 Content per capsule: per 20 mg capsule of 1% w/w lactose blend, adjusted for measured blend content (% theoretical), as RPL554 base
# Protocol: Batches (approximately 5 g) of 1% w/w RPL554 free base or salt variants: lactose blends were prepared. In brief, the RPL554 free base or salt plus a small quantity of lactose was passed through a 38 μm sieve. The sieved material plus the remaining lactose was mixed in a glass mortar prior to transfer to a stainless steel screw cap jar and further mixing (10 minutes at 46 rpm) conducted using a Turbula blender. The composition of the dry powder blend was 0.05 g API and 4.95 g lactose.
# In order to determine the content uniformity of the blends, aliquots (approx. 20 mg) of powder were sampled from each blend, accurately weighed, and diluted to volume in 10 mL volumetric flasks with diluent. The flasks were sonicated for 3 minutes before samples were transferred to HPLC vials for analysis.
# [6] = Aerosol performance of DPI formulations (Cyclohaler, NGI); type: physicochemical; conditions: for †Measured Mass of 1% w/w Blend Delivered per capsule / ††RPL554 Emitted (μg) per capsule (B): Cyclohaler; for †Measured Mass of 1% w/w Blend Delivered per capsule: 5 capsules containing 20 mg powder blend, mass from weight change of capsule-loaded device; for ††RPL554 Emitted (μg) per capsule (B): NGI, mass determined from HPLC analysis of recovered samples; for ††RPL554 Emitted (μg) per capsule (B) / Calculated RPL554 Content (μg) per capsule (A): as RPL554 base; for Calculated RPL554 Content (μg) per capsule (A): calculated from delivered blend mass and measured blend content
# Protocol: Capsules were hand filled with 20 mg of the 1% w/w RPL554 free base or salt variants: lactose blends, i.e. 200 μg salt per capsule, the fill weight of each capsule was recorded. Due to differences in the molecular weights of the RPL554 salt forms, the amount of RPL554 emitted per actuation varied as a function of molecular weight. The formulations were prepared with no adjustment for differences in molecular weight of the salts.
# The powders were delivered via the Cyclohaler® DPI (PCH Pharmachemie, BV, The Netherlands). The Cyclohaler® DPI is a low resistance device and was operated at a flow rate of 90 L/min for 2.7 seconds. The cut off diameters for the NGI collection stages were calculated for the 90 L/min flow rate using the NGI User Guide (MSP Corporation, 2008).
# The ED, FPD and FPF were determined from inertial impaction tests performed following the deposition of 5 capsules of each formulation into the NGI. For each capsule tested the combined weight of the Cyclohaler® and capsule was determined before and after operation to check that the dose had been delivered. The NGI was fitted with a pre-separator for these determinations. The central cup of the pre-separator was filled with 15 mL of diluent. Following deposition, the solution was recovered in a 20 mL volumetric flask and made up to volume with diluent. RPL554 was quantitatively recovered from the device, induction port and each of the NGI collection stages with 10 mL of diluent.
# The volume of diluent used for each sample was selected to ensure RPL554 concentrations were above the limit of quantitation.
# [7] = Physico-chemical characteristics of salt candidates: solubility in water, pH of aqueous suspension/solution, form post water maturation
# Protocol: The physico-chemical characteristics of the salt candidates were determined.
# [8] = listed as methanesulfonate salt
# [9] = in HFA 134, BLQ = below limit of quantitation (0.06 μg/mL)
# [10] = listed as p-toluenesulfonate salt
Compound,Solubility as RPL554 (mg/ml) in 0.7 w/w % Saline [1],Solubility as RPL554 (mg/ml) in 0.9 w/w % Saline [1],Solubility as RPL554 (mg/ml) in 1.1 w/w % Saline [1],Solubility as RPL554 (mg/ml) in Water [1],D (0.1) (μm) [3],D (0.5) (μm) [3],D (0.9) (μm) [3],Calculated RPL554 solubilised (%) ([4]; in HFA 134),Calculated Solubilised RPL554 μg per 50 μL actuation ([4]; in HFA 134),Estimated RPL554 solubilised (%) ([4]; in HFA 134 with Ethanol/Tween),Estimated Solubilised RPL554 μg per 50 μL actuation ([4]; in HFA 134 with Ethanol/Tween),Solubility RPL554 ([4]; in HFA 134 with Ethanol/Tween),Calculated RPL554 solubilised (%) ([4]; in HFA 227),Calculated Solubilised RPL554 μg per 50 μL actuation ([4]; in HFA 227),Solubility RPL554 (μg/g) ([4]; in HFA 227),Measured Blend Content (% Theoretical) [5],**Adjusted RPL554 Content per capsule [5],†Measured Mass of 1% w/w Blend Delivered per capsule [6],††RPL554 Emitted (μg) per capsule (B) [6],Calculated RPL554 Content (μg) per capsule (A) [6],other results
"COc1cc2c(cc1OC)-c1c/c(=N\c3c(C)cc(C)cc3C)n(CCNC(N)=O)c(=O)n1CC2 [Methanesulfonate, RPL554 methanesulfonate]",5.01 mg/mL,3.73 mg/mL,2.52 mg/mL,44.52 mg/mL,0.45 μm,1.20 μm,3.46 μm,BLQ,BLQ,11.64%,19.38 µg,298.07 µg/g,BLQ,BLQ,BLQ,99.13 % Theoretical,165.05 µg,19.96 mg,118.69 µg,164.72 µg,"dissolution compared with free base / other salts ([2]; 2 hour experiments): higher dissolution than the rest of the salts; mass dissolved ([2]; at 8.5 min): 3960 µg; mass dissolved ([2]; at 11 min): 5200 µg; maximum pH change (decrease) during dissolution ([2]; nominal start pH 7): about 0.1 pH units; Mass of salt (μg) dissolved after 2 hours, Average [2, 8]: 225 µg; Mass of salt (μg) dissolved after 2 hours, Test 1 [2, 8]: 160 µg; Mass of salt (μg) dissolved after 2 hours, Test 2 [2, 8]: 290 µg; Solubility RPL554 (μg/g) [4, 9]: BLQ; Solubility RPL554 ([4]; in HFA 134 with Ethanol/Tween, listed as methanesulfonate): 298 µg/g; pH of aqueous suspension/solution ([7]; listed as Methane sulfonic): 2.69"
"COc1cc2c(cc1OC)-c1c/c(=N\c3c(C)cc(C)cc3C)n(CCNC(N)=O)c(=O)n1CC2 [p-Toluenesulfonate, RPL554 p-toluenesulfonate]",0.83 mg/mL,0.62 mg/mL,0.8 mg/mL,1.01 mg/mL,0.47 μm,1.34 μm,4.53 μm,0.08%,0.11 µg,7.20%,10.58 µg,152.85 µg/g,BLQ,BLQ,BLQ,88.66 % Theoretical,130.33 µg,20.02 mg,86.84 µg,130.46 µg,"Mass of salt (μg) dissolved after 2 hours, Average [2, 10]: 61.6 µg; Mass of salt (μg) dissolved after 2 hours, Test 1 [2, 10]: 51.2 µg; Mass of salt (μg) dissolved after 2 hours, Test 2 [2, 10]: 71.9 µg; Solubility RPL554 [4, 9]: 1.56 µg/g; Solubility RPL554 (μg/g) ([4]; in HFA 134, BLQ = below limit of quantitation (0.06 μg/mL), listed as p-toluensulfonate): quantifiable levels of solubility; pH of aqueous suspension/solution ([7]; listed as p-Toluene sulfonic): 3.40"
